Test results published in PubChem BioAssay AID330 (DTP/NCI, 2004).
“And” between values parts separate entries of the source, which are not always exact repeats. Equal values may be shown once. Inconclusive results and toxic doses are left out.

Test system: P388 leukemia ip, CD2F1 mice, survival T/C
Assay: NCI In Vivo Anticancer Drug Screen. Data for tumor model P388 Leukemia (intraperitoneal) in CD2F1 (CDF1) mice
Conditions: endpoint: median survival time, higher = longer survival
In short: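 Mice carrying the transplanted tumor received test compound or vehicle. Survival was recorded in each group, and the value is the treated-group measurement divided by that of the vehicle-treated control group.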

[1] = dose: 100.0 mg/kg/injection, schedule: Q04DX003 (ip), vehicle: saline
[2] = dose: 200.0 mg/kg/injection, schedule: Q04DX003 (ip), vehicle: saline
[3] = dose: 400.0 mg/kg/injection, schedule: Q04DX003 (ip), vehicle: saline
[4] = dose: 60.0 mg/kg/injection, schedule: Q01DX005 (ip), vehicle: saline with Tween-80
[5] = dose: 100.0 mg/kg/injection, schedule: Q04DX003 (ip), vehicle: Klucel (hydroxypropylcellulose) (HPC)
[6] = dose: 200.0 mg/kg/injection, schedule: Q04DX003 (ip), vehicle: Klucel (hydroxypropylcellulose) (HPC)
[7] = dose: 400.0 mg/kg/injection, schedule: Q04DX003 (ip), vehicle: Klucel (hydroxypropylcellulose) (HPC)
[8] = dose: 100.0 mg/kg/injection, schedule: Q04DX003 (ip), vehicle: saline with Tween-80
[9] = dose: 200.0 mg/kg/injection, schedule: Q04DX003 (ip), vehicle: saline with Tween-80
[10] = dose: 100.0 mg/kg/injection, schedule: Q01DX009 (ip), vehicle: saline with Tween-80
[11] = dose: 200.0 mg/kg/injection, schedule: Q01DX009 (ip), vehicle: saline with Tween-80
[12] = dose: 60.0 mg/kg/injection, schedule: Q01DX005 (ip), vehicle: Klucel (hydroxypropylcellulose) (HPC)
[13] = dose: 120.0 mg/kg/injection, schedule: Q01DX005 (ip), vehicle: Klucel (hydroxypropylcellulose) (HPC)

COc1cc(NS(C)(=O)=O)ccc1Nc1c2ccc([N+](=O)[O-])cc2nc2c(C)cccc12
T/C (dose: 3.0 mg/kg/injection, schedule: Q01DX009 (ip), vehicle: saline with Tween-80): 272 % of control | T/C (dose: 3.0 mg/kg/injection, schedule: Q04DX003 (ip), vehicle: saline with Tween-80): 181 % of control | T/C (dose: 6.0 mg/kg/injection, schedule: Q01DX009 (ip), vehicle: saline with Tween-80): 100 % of control | T/C (dose: 6.0 mg/kg/injection, schedule: Q04DX003 (ip), vehicle: saline with Tween-80): 209 % of control | T/C (dose: 7.9 mg/kg/injection, schedule: Q04DX003 (ip), vehicle: saline with Tween-80): 218 % of control | T/C (dose: 12.0 mg/kg/injection, schedule: Q04DX003 (ip), vehicle: saline with Tween-80): 181 % of control and 231 % of control

O=C(O)CCCc1ccc2ccc3cccc4ccc1c2c34
T/C (dose: 50.0 mg/kg/injection, schedule: Q01DX005 (ip), vehicle: saline with Tween-80): 102 % of control | T/C (dose: 100.0 mg/kg/injection, schedule: Q01DX005 (ip), vehicle: saline with Tween-80): 98 % of control | T/C (dose: 200.0 mg/kg/injection, schedule: Q01DX005 (ip), vehicle: saline with Tween-80): 100 % of control

CC1(C(N)=O)CO1 (stereo unspecified)
T/C [1]: 103 % of control | T/C [2]: 100 % of control | T/C [3]: 100 % of control

CN1CCC/C1=C/C(=O)c1ccc(Cl)cc1
T/C [1]: 102 % of control and 98 % of control | T/C [2]: 111 % of control and 120 % of control | T/C [3]: 92 % of control

CCOC(=O)N1C=CC(CC(=O)N(CC)CC)C=C1 (tested in a mixture with another compound)
T/C (dose: 60.0 mg/kg/injection, schedule: Q01DX005 (ip), vehicle: saline): 102 % of control | T/C (dose: 120.0 mg/kg/injection, schedule: Q01DX005 (ip), vehicle: saline): 96 % of control | T/C (dose: 240.0 mg/kg/injection, schedule: Q01DX005 (ip), vehicle: saline): 108 % of control

CCN1C(Cl)=NS(=O)(=O)c2ccccc21
T/C (dose: 15.0 mg/kg/injection, schedule: Q01DX005 (ip), vehicle: saline with Tween-80): 116 % of control | T/C (dose: 30.0 mg/kg/injection, schedule: Q01DX005 (ip), vehicle: saline with Tween-80): 113 % of control | T/C [4]: 100 % of control

COc1cc(C=Nc2cc(Cl)c(Cl)c(Cl)c2)ccc1N(CCCl)CCCl
T/C (dose: 0.79 mg/kg/injection, schedule: Q01DX009 (ip), vehicle: Klucel (hydroxypropylcellulose) (HPC)): 105 % of control

CC1(CO)CCCC1NCCNC1CCCC1(C)CO (stereo unspecified)
T/C [4]: 102 % of control | T/C (dose: 120.0 mg/kg/injection, schedule: Q01DX005 (ip), vehicle: saline with Tween-80): 105 % of control

CC(C)(C)N1CS[C@@H]2CCCC[C@H]21
T/C (dose: 25.0 mg/kg/injection, schedule: Q01DX005 (ip), vehicle: saline): 104 % of control | T/C (dose: 50.0 mg/kg/injection, schedule: Q01DX005 (ip), vehicle: saline): 92 % of control | T/C (dose: 100.0 mg/kg/injection, schedule: Q01DX005 (ip), vehicle: saline): 111 % of control

Fc1ccc(CN2COc3c(ccc4cccnc34)C2)c(F)c1
T/C [5]: 95 % of control | T/C [6]: 112 % of control | T/C [7]: 89 % of control

[O-]/[N+](=C\c1ccccc1)c1ccccc1
T/C [8]: 104 % of control | T/C [9]: 99 % of control

O=C1/C(=C/c2cccc(O)c2O)SC(=S)N1CCCN1CCOCC1
T/C (dose: 50.0 mg/kg/injection, schedule: Q01DX009 (ip), vehicle: saline with Tween-80): 98 % of control | T/C [10]: 107 % of control | T/C [11]: 92 % of control

CCOc1c(N=Nc2ccccc2)c(C)nn1C(=S)S
T/C (dose: 60.0 mg/kg/injection, schedule: Q01DX005 (ip), vehicle: Klucel + Tween-80): 101 % of control | T/C (dose: 120.0 mg/kg/injection, schedule: Q01DX005 (ip), vehicle: Klucel + Tween-80): 101 % of control | T/C (dose: 240.0 mg/kg/injection, schedule: Q01DX005 (ip), vehicle: Klucel + Tween-80): 100 % of control

COC(=O)c1nc(N)nc(C(=O)OC)c1C(=O)c1cccc([N+](=O)[O-])c1
T/C [12]: 100 % of control | T/C [13]: 101 % of control

CCCCCC(=O)Cc1cc(OC)cc(O)c1C(=O)Oc1cc(CCCCC)c(C(=O)O)c(OC)c1
T/C (dose: 0.25 mg/kg/injection, schedule: Q01DX009 (ip), vehicle: saline with Tween-80): 101 % of control | T/C (dose: 0.5 mg/kg/injection, schedule: Q01DX009 (ip), vehicle: saline with Tween-80): 104 % of control | T/C (dose: 1.0 mg/kg/injection, schedule: Q01DX009 (ip), vehicle: saline with Tween-80): 108 % of control

CN1C(=O)C(=O)N2c3ccc(Cl)cc3C3(c4ccccc4)N=CC12O3 (stereo unspecified)
T/C [5]: 109 % of control | T/C [6]: 112 % of control | T/C [7]: 113 % of control

COc1cc([N+](=O)[O-])cc2c1OC1(N=C2)Sc2ccccc2N1C (stereo unspecified)
T/C (dose: 100.0 mg/kg/injection, schedule: Q01DX001 (ip), vehicle: saline): 103 % of control | T/C (dose: 200.0 mg/kg/injection, schedule: Q01DX001 (ip), vehicle: saline): 100 % of control | T/C (dose: 400.0 mg/kg/injection, schedule: Q01DX001 (ip), vehicle: saline): 103 % of control

Cc1c(C)c2c(c(C)c1O)CCC(C)(CCCC(C)CCCC(C)CCCC(C)C)O2 (stereo unspecified)
T/C (dose: 42.5 mg/kg/injection, schedule: Q01DX001 (ip), vehicle: olive oil, sesame oil, peanut oil): 104 % of control | T/C (dose: 50.0 mg/kg/injection, schedule: Q01DX009 (ip), vehicle: olive oil, sesame oil, peanut oil): 106 % of control | T/C (dose: 85.0 mg/kg/injection, schedule: Q01DX001 (ip), vehicle: olive oil, sesame oil, peanut oil): 98 % of control | T/C (dose: 100.0 mg/kg/injection, schedule: Q01DX009 (ip), vehicle: olive oil, sesame oil, peanut oil): 100 % of control | T/C [10]: 100 % of control | T/C [8]: 100 % of control | T/C (dose: 170.0 mg/kg/injection, schedule: Q01DX001 (ip), vehicle: olive oil, sesame oil, peanut oil): 100 % of control and 97 % of control | T/C (dose: 200.0 mg/kg/injection, schedule: Q01DX009 (ip), vehicle: olive oil, sesame oil, peanut oil): 103 % of control | T/C [11]: 104 % of control | T/C [9]: 100 % of control | T/C (dose: 340.0 mg/kg/injection, schedule: Q01DX001 (ip), vehicle: olive oil, sesame oil, peanut oil): 91 % of control | T/C (dose: 400.0 mg/kg/injection, schedule: Q01DX009 (ip), vehicle: Klucel (hydroxypropylcellulose) (HPC)): 102 % of control | T/C (dose: 400.0 mg/kg/injection, schedule: Q01DX009 (ip), vehicle: saline with Tween-80): 100 % of control | T/C (dose: 400.0 mg/kg/injection, schedule: Q04DX003 (ip), vehicle: saline with Tween-80): 87 % of control | T/C (dose: 800.0 mg/kg/injection, schedule: Q01DX009 (ip), vehicle: Klucel (hydroxypropylcellulose) (HPC)): 101 % of control | T/C (dose: 1200.0 mg/kg/injection, schedule: Q01DX009 (ip), vehicle: Klucel (hydroxypropylcellulose) (HPC)): 106 % of control | T/C (dose: 1600.0 mg/kg/injection, schedule: Q01DX009 (ip), vehicle: Klucel (hydroxypropylcellulose) (HPC)): 113 % of control | T/C (dose: 42.5 IU/animal/injection, schedule: Q01DX001 (ip), vehicle: olive oil, sesame oil, peanut oil): 102 % of control and 110 % of control | T/C (dose: 85.0 IU/animal/injection, schedule: Q01DX001 (ip), vehicle: olive oil, sesame oil, peanut oil): 102 % of control and 105 % of control and 107 % of control | T/C (dose: 170.0 IU/animal/injection, schedule: Q01DX001 (ip), vehicle: olive oil, sesame oil, peanut oil): 101 % of control and 113 % of control (2×) | T/C (dose: 340.0 IU/animal/injection, schedule: Q01DX001 (ip), vehicle: olive oil, sesame oil, peanut oil): 102 % of control and 104 % of control

CC(C)(C)COc1ccc2c(c1)C1=NC2=NC2=NC(=NC3=NC(=NC4=NC(=N1)c1ccc(OCC(C)(C)C)cc14)c1ccc(OCC(C)(C)C)cc13)c1ccc(OCC(C)(C)C)cc12
T/C [12]: 99 % of control | T/C [13]: 88 % of control | T/C (dose: 240.0 mg/kg/injection, schedule: Q01DX005 (ip), vehicle: Klucel (hydroxypropylcellulose) (HPC)): 89 % of control

O=P(c1ccccc1)(c1ccccc1)C(O)c1ccc(F)cc1 (stereo unspecified)
T/C (dose: 50.0 mg/kg/injection, schedule: Q01DX009 (ip), vehicle: Klucel (hydroxypropylcellulose) (HPC)): 89 % of control | T/C (dose: 100.0 mg/kg/injection, schedule: Q01DX009 (ip), vehicle: Klucel (hydroxypropylcellulose) (HPC)): 100 % of control | T/C (dose: 200.0 mg/kg/injection, schedule: Q01DX009 (ip), vehicle: Klucel (hydroxypropylcellulose) (HPC)): 93 % of control
